Results from US5858702A, “Isolation, cloning and expression of transmembrane water channel Aquaporin 5 (AQP5)” (The Johns Hopkins University, priority 1995, dated 1999).

Legend:
CHIP28 = biological target: T1, CHIP28 (Homo sapiens, UniProt P29972); test: Stopped-flow water flux (Pf) in CHIP28 proteoliposomes, effect of mercurial reagents; type: biochemical; conditions: 1 mM
T1 construct: was comprised of AQP1 (the 28-kDa protein itself and the 35-60-kDa glycosylated protein); from tissue; host or cells: human erythrocytes (blood-bank units; small-scale purifications from freshly drawn whole blood)
T1 sequence (P29972 2-269 limits assumed): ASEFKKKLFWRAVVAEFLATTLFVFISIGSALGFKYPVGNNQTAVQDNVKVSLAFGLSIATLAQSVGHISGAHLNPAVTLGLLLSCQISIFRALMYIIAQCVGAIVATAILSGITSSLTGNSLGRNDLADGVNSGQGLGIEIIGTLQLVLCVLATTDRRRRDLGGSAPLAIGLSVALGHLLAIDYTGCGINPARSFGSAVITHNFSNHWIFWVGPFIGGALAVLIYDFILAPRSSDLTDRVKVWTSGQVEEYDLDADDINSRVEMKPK
Method: Purified AQP1 was stored overnight at 0° C. or frozen for several days at -80° C. prior to reconstitution. Reconstitution into proteoliposomes was carried out in a final volume of 1 ml containing 60-90 μg of purified AQP 1 protein in chromatography buffer, 9 mg of bath-sonicated E. coli phospholipid, 1.25% (w/v) octyl glucoside, and 50 mM Tris-HCl (pH 7.5). The mixture was briefly blended on a vortex mixer and incubated for 20 minutes on ice. Proteoliposomes (or liposomes prepared without protein) were formed at room temperature by rapidly injecting the mixture into 25 ml of buffer A [50 mM MOPS, pH 7.5, 150 mM N-methyl-D-glucamine (NMDG) chloride also containing 10-15 mM carboxyfluorescein, 1 mM dithiothreitol, and 0.5 mM PMSF]. For the measurement of proton permeability, proteoliposomes and liposomes were loaded with buffer B (5 mM MOPS, pH 7.5, 150 mM KCl, 0.5 mM carboxyfluorescein, 1 mM dithiothreitol, and 0.5 mM PMSF). The suspension was incubated for 20 minutes at room temperature. Proteoliposomes or liposomes were collected by centrifugation for 1 hour at 123000×g in a Beckman Type 42.1 rotor at 4° C. The pellet was resuspended in 8 ml of buffer A or B and then centrifuged for 1 hour at 152000×g in a Beckman Type 50 Ti rotor. Proteoliposomes or liposomes were resuspended in 300 μl of buffer A or B and stored at 4° C. for 16-24 hours. Typically 50% (54±6%, n=5) of the AQP1 protein and 70% of the phospholipid were recovered in proteoliposomes. The lipid to protein ratio was in the range of 120:1 to 219:1. These proteoliposomes have internal volumes of 1 μl/mg of phospholipid (Ambudkar and Maloney, 1986, J. Biol. Chem. 261:10079-10086). Protein and phospholipid were measured as described by Ambudkar & Maloney (J. Biol. Chem., 1986, 261:10079-10086).
(§1) Permeability measurements. Membrane permeability measurements (Pf) were measured by exposing AQP1 proteoliposomes or control liposomes to an osmotic gradient by rapid mixing with an equal volume of another solution containing buffer A plus sufficient sucrose to increase osmolality in the mixed solutions to a value 120% of that in the original solution. This was performed with a stopped-flow fluorometer (SF.17MV, Applied Photophysics, Leatherhead, U.K.) with a measured dead time of 0.7 ms. The excitation wavelength was set at 490±1.5 nm using a 150-W mercury-xenon arc lamp and monochromator (.function.3.4 grating monochromator, both from Applied Photophysics); the emission wavelength was >515 nm using a cut-on filter (Oriel Corp., Stratford, Conn.). Extravesicular carboxyfluorescein fluorescence was completely quenched using anti-fluorescein antibody (Harris et al., 1990, Am. J. Physiol. 259:F366-F371).
Within the range of osmolalities used in these experiments, the vesicles acted as perfect osmometers, and relative volume (absolute volume divided by initial volume) was linearly related to relative fluorescence (absolute fluorescence divided by initial fluorescence). The data obtained from 8 to 16 determinations was averaged and fit to single-exponential curves using 5 software provided by Applied Photophysics (Zeidel et al., 1992, Biochemistry 31:589-596). The fitting parameters were then used to determine Pf by first applying the linear conversion from relative fluorescence to relative volume and then iteratively solving the water permeability equation using MathCAD software (MathSoft, Cambridge, Mass.):
dV(t)/dt=(Pf)(SAV)(MVW)[(Cin /V(t))-Cout ] (1)
where V(t) is relative intravesicular volume as a function of time, Pf is osmotic water permeability in centimeters per second, SAV is the vesicle surface area to volume ratio, MVW is the molar volume of water (18 cm^3 /mol), and Cin and Cout are the initial concentrations of total solute inside and outside the vesicle, respectively (Zeidel et al., 1992, Biochemistry 31:589-596).
Effect of mercural reagents.

[1] = Stopped-flow water flux (Pf) in control liposomes, effect of mercurial reagents; type: biochemical; conditions: 1 mM mercurial
Method: (§2) Purified AQP1 was stored overnight at 0° C. or frozen for several days at -80° C. prior to reconstitution. Reconstitution into proteoliposomes was carried out in a final volume of 1 ml containing 60-90 μg of purified AQP 1 protein in chromatography buffer, 9 mg of bath-sonicated E. coli phospholipid, 1.25% (w/v) octyl glucoside, and 50 mM Tris-HCl (pH 7.5). The mixture was briefly blended on a vortex mixer and incubated for 20 minutes on ice. […] Protein and phospholipid were measured as described by Ambudkar & Maloney (J. Biol. Chem., 1986, 261:10079-10086).
as §1, with “The excitation wavelength was set at 490±1.5 nm using a 150-W mercury-xenon arc lamp and monochromator (.function.3.4 grating monochromator, both from Applied Photophysics); the emission wavelength was >515 nm using a cut-on filter (Oriel Corp., Stratford, Conn.).” left out, “259:F366-F371). […]” for “259:F366-F371).”

human RBC = conditions: cited from earlier work
[2] = Proton permeability (PH+) of CHIP28 proteoliposomes; type: biochemical; conditions: 1 μM gramicidin A added to vesicles
Method: as §2, with “ice. Proteoliposomes (or liposomes prepared without protein) were formed at room temperature by rapidly injecting the mixture into 25 ml of buffer A [50 mM MOPS, pH 7.5, 150 mM N-methyl-D-glucamine (NMDG) chloride also containing 10-15 mM carboxyfluorescein, 1 mM dithiothreitol, and 0.5 mM PMSF].” for “ice.”
Exclusion of protons. […] Proton permeability was measured in CHIP28-containing liposomes containing 150 mM KCl and 5 mM MOPS, incorporating 1 μM valinomycin to prevent accumulation of protons from generating a positive intravesicular voltage. […] Over the pH range employed, fluorescence was linearly related to pH; extravesicular fluorescence was quenched with anti-fluorescein antibody. To ensure that increases in PH+ caused by CHIP28 could have been detected, 1 μM gramicidin A was added and increased PH+ by over 50-fold in each experiment.

Xenopus oocytes = test: Two electrode voltage clamp of AQP5-expressing oocytes; type: cell-based; conditions: electrophysiological studies, not shown
Method: Functional expression in Oocytes--A 1-kb BamHI fragment containing the 5' untranslated sequence and the entire open reading frame of the salivary cDNA was blunt-end-ligated into the BglII site of the Xenopus expression construct pXβG, which contains the HindIII-Pst insert of pSP64T in pBS II KS (Preston et al., 1992, Science, 256:385-387). Capped cRNA was synthesized in vitro after digestion with Xbal (Preston et al., 1993). Defolliculated stage V-VI Xenopus oocytes were injected with 50 nl of water or up to 5 ng of sample cRNAs and incubated for 3 days at 18° C. in 200 mosM modified Barth's buffer. The oocytes were transferred to 70 mosM modified Barth's buffer at 21° C.; oocyte swelling was monitored by videomicroscopy, and the coefficient of osmotic water permeability (Pf) was determined (Preston et al., 1992, 1993). Uptake of [^14 C]urea or [^14 C]glycerol was measured by incubating oocytes in 200 mosM Barth's buffer for 10-20 min at 21° C. followed by washing and SDS solubilization. No increase in ion conductance was found when control oocytes were compared to RNA-injected oocytes by two electrode voltage clamps (Preston et al, 1992).

O=S(=O)([O-])c1cc[c]([Hg][Cl])cc1 [pCMBS, p-chloromercuribenzene sulfonate]
inhibition of Pf at 5 and 10 minutes (CHIP28; 37° C.): partial | time to complete inhibition of Pf (CHIP28; 37° C.): 20 to 30 min | Pf in CHIP28 proteoliposomes after mercurial (CHIP28; 37° C. (FIG. 12: pCMBS 25 minutes, HgCl2 3 minutes)): 0.009±0.005 cm/s | effect on the Pf of control liposomes [1]: Neither pCMBS nor HgCl2 had any effect

O=C(CCc1ccc(O)cc1)c1c(O)cc(O)cc1O [Phloretin]
urea flux in human RBC (human RBC): inhibits urea flux | water flux in human RBC (human RBC): without altering water flux

gramicidin A
increase of PH+ [2]: over 50 fold

B1: AQP5: 265-residue rat salivary water channel protein, 5th mammalian Aquaporin (protein, UniProt P47864 1-265, looked up)
Aquaporin-5: MKKEVCSLAFFKAVFAEFLATLIFVFFGLGSALKWPSALPTILQISIAFGLAIGTLAQALGPVSGGHINPAITLALLIGNQISLLRAVFYVAAQLVGAIAGAGILYWLAPLNARGNLAVNALNNNTTPGKAMVVELILTFQLALCIFSSTDSRRTSPVGSPALSIGLSVTLGHLVGIYFTGCSMNPARSFGPAVVMNRFSPSHWVFWVGPIVGAMLAAILYFYLLFPSSLSLHDRVAVVKGTYEPEEDWEDHREERKKTIELTAH
membrane conductance (Xenopus oocytes): failed to reveal increased membrane conductance
